Data from patent US20180362587A1, “Compositions and Methods for Inhibiting CBP80 Binding to PGC1 Family of Co-Activators” (University of Rochester, priority 2015, published 2018).
Square brackets hold non-standard residues; d marks the D form. Peptide text beside a SMILES is read from it. * marks the point of attachment. Crotonyl(E) = C/C=C/C(=O)*; Dab = NCC[C@H](N)C(=O)O; Aib = CC(C)(N)C(=O)O

B1: PGC1β-Cterm (Ac-AMDFDSLLKEAQQSLH-NH2) (peptide)
peptide: Ac-AMDFDSLLKEAQQSLH-NH2
notes: also called PGC1β-Cterm peptide; unlabeled version of the PGC1β peptide
B2: PGC1α-Cterm (Ac-SLDFDSLLKEAQRSLRR-NH2) (peptide)
peptide: Ac-SLDFDSLLKEAQRSLRR-NH2
B3: PRC-Cterm (Ac-SLDFDDLLKQAQKNLRR-NH2) (peptide)
peptide: Ac-SLDFDDLLKQAQKNLRR-NH2
B4: PGC1β-2A (Ac-MAFDSLLKEAQQS-NH2) (peptide)
peptide: Ac-MAFDSLLKEAQQS-NH2
B5: PGC1β-8A (Ac-MDFDSLLAEAQQS-NH2) (peptide)
peptide: Ac-MDFDSLLAEAQQS-NH2
B6: PGC1β-12A (Ac-MDFDSLLKEAQAS-NH2) (peptide)
peptide: Ac-MDFDSLLKEAQAS-NH2
B7: PGC1β-19 (Ac-MDFDSLLKEAQQSRRRRRRRR-NH2) (peptide)
peptide: Ac-MDFDSLLKEAQQSRRRRRRRR-NH2

How the values were obtained:
CBP80/CBP20 complex [1] = biological target: T1, CBP80/CBP20 complex (Homo sapiens, UniProt Q09161); test: fluorescence polarization based competition assay (displacement of FITC-labeled PGC1β peptide); assay type: binding; conditions: 1 μM FITC-labeled PGC1β (FITC-Ahx-AMDFDSLLKEAQQSLH-NH2), 30 μM CBP80/CBP20 complex, HEPES buffer pH 7.5
T1 sequence (Q09161 1-790): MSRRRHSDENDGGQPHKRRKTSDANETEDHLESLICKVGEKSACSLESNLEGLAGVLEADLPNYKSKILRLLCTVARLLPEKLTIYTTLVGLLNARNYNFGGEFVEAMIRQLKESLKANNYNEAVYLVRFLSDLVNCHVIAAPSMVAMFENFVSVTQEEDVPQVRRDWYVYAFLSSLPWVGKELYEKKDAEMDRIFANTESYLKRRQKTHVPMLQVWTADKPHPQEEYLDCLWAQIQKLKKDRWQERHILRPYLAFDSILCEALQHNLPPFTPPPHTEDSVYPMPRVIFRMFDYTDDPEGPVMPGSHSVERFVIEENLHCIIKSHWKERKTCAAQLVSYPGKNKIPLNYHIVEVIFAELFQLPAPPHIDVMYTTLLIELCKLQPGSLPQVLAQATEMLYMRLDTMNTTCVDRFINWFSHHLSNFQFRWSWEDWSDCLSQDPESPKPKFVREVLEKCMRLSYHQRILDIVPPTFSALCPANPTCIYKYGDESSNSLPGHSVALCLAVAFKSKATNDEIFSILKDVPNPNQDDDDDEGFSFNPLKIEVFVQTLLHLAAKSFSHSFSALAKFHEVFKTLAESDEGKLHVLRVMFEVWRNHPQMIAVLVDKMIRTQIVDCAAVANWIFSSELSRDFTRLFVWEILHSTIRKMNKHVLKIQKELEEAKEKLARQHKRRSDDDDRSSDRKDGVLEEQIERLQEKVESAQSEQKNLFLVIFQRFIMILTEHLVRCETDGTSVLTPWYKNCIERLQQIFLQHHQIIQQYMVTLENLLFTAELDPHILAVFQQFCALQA
T1 sequence (P52298 1-156 partner): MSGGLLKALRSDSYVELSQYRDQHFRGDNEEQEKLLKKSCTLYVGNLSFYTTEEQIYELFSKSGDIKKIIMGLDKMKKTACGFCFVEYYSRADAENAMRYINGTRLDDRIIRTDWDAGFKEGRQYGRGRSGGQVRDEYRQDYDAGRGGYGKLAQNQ
Method: The ability of α-MOrPHs to disrupt the PGC1β-CBP80 interaction will be assessed and quantified via a fluorescence polarization-based competition assay, in which disruption of the complex formed between a fluorescein-conjugated PGC1β peptide and CBP80 is measured upon adding increasing concentrations of each inhibitory α-MOrPH (FIG. 5A). […] Initially, the length of the linker in the inhibitory α-MOrPH will be optimized for maximal activity toward disrupting the PGC1β-CBP80 interaction (e.g. using SP1-3, FIG. 4).
(§1) The relative activity of the PGC1β mimics toward disrupting the interaction between CBC and the fluorescein-conjugated PGC1β-derived peptide was measured in a competition assay. Briefly, a fixed amount of CBC and fluorescein-conjugated PGC1β-derived peptide are incubated with increasing amounts of the PGC1β mimic (FIG. 11A). From the resulting dose-dependent inhibition curves, the in vitro CBC inhibitory activity of the PGC1β mimic compound is measured based on their respective half-maximal inhibitory concentration (IC50) (FIG. 5B). Using this assay, various PGC1β mimics were evaluated for their relative ability to target CBC and disrupt its binding interaction with PGC1β. […] Short peptides derived from the C-terminal domain of PGC1β and PRC proteins, two other members of the PGC1 family of transcriptional coactivators, were also to bind CBC and inhibits its interaction with the fluorescein-labeled PGC1β peptide with IC50 values in the low micromolar range.
IC50 values were determined by adapting the fluorescence polarization assay described above to a competition format. 1 μM of the FITC-labeled PGC1β peptide (FITC-Ahx-AMDFDSLLKEAQQSLH-NH2) was incubated with 30 μM of the CBP80-CBP20 complex in HEPES Buffer (10 mM HEPES [pH 7.5], 50 mM NaCl and 5 mM 2-mercaptoethanol). The inhibitory peptide was added to the solution at varying concentrations, typically ranging from 1 to 200 μM. Half-maximal inhibitory concentration (IC50) values were calculated from the resulting inhibition curves as given by dose-dependent decrease in the fluorescence polarization signal. All measurements were performed at least in duplicates.

CBP80/CBP20 complex [2] = biological target: T2, CBP80/CBP20 complex (human, UniProt Q09161 20-790; P52298 1-156, limits assumed); test: FP competition assay; 1 µM FITC-Ahx-…-NH2 as competitor, 30 µM CBP80/CBP20 complex
T2 construct: Used in the fluorescence polarization assays; In the crystal it also carried the cap analogue (m7GpppG / m7GpppA); also called CBC complex; CBC
T2 sequence (looked up) 1: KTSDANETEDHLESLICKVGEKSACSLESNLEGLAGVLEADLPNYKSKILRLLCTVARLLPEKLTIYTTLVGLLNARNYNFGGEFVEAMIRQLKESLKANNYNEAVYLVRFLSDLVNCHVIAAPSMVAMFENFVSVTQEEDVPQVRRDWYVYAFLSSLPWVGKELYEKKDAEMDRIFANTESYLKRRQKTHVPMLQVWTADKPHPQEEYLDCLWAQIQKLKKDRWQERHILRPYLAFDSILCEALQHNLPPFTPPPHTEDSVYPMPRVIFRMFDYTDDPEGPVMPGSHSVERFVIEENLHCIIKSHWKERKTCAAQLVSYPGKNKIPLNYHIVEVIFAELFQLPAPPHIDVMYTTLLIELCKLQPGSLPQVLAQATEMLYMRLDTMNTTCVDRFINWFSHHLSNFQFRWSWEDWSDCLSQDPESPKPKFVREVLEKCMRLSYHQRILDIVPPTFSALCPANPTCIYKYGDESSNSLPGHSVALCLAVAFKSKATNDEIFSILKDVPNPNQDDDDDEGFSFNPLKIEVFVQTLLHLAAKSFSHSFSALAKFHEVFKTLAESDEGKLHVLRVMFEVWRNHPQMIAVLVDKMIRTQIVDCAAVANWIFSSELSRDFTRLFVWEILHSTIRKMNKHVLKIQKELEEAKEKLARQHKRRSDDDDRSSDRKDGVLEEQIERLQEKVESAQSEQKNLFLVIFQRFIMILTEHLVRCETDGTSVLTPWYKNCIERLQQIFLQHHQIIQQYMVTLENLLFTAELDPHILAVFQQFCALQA
T2 sequence (looked up) 2: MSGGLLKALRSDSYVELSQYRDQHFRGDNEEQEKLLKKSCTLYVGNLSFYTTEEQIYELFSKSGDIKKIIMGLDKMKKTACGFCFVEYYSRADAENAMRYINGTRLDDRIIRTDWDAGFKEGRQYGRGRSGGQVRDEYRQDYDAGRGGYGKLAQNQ
Method: as §1, with “(IC₅₀)” for “(IC50)”, “IC₅₀” for “IC50”
^aAc = acetyl; Biot = biotin; Ahx = 6-aminohexanoic acid; Aib = 2-aminoisobutyric acid; CrtDab = N^γ-crotonyl-2,4-diaminobutyric acid. C-terminal ‘-NH₂’ refers to amidated C-terminal end of the peptide. ^bIC₅₀ was determined using fluorescence polarization based competition assay in the presence of 1 μM of FITC-labeled PGC1β (FITC-Ahx-[…]-NH₂, where FITC is fluorescein-isothiocyanate) and 30 μM of the CBP80/CBP20 complex in HEPES buffer (10 mM HEPES, 50 mM NaCl, 5 mM BME, pH 7.5).
IC₅₀ values were determined by adapting the fluorescence polarization assay described above to a competition format. 1 μM of the FITC-labeled PGC1β peptide (FITC-Ahx-[…]-NH₂) was incubated with 30 μM of the CBP80-CBP20 complex in HEPES Buffer (10 mM HEPES [pH 7.5], 50 mM NaCl and 5 mM 2-mercaptoethanol).

Row | Molecule | IC50 (CBP80/CBP20 complex [1]) | IC50 (CBP80/CBP20 complex [2])
1 | CSCC[C@H](NC(C)=O)C(=O)N[C@@H](C)C(=O)N[C@@H](Cc1ccccc1)C(=O)N[C@@H](CC(=O)O)C(=O)N[C@@H](CO)C(=O)N[C@@H](CC(C)C)C(=O)N[C@@H](CC(C)C)C(=O)N[C@@H](CCCCN)C(=O)NC(C)(C)C(=O)N[C@@H](C)C(=O)N[C@@H](CCC(N)=O)C(=O)N[C@@H](CCC(N)=O)C(=O)N[C@@H](CO)C(N)=O [PGC1β-16, Ac-MAFDSLLK(Aib)AQQS-NH2] (Ac-MAFDSLLK[Aib]AQQS-NH2) | < 100 µM | –
2 | C/C=C/C(=O)NCC[C@H](NC(=O)[C@H](CC(C)C)NC(=O)[C@H](CC(C)C)NC(=O)[C@H](CO)NC(=O)[C@H](CC(=O)O)NC(=O)[C@H](Cc1ccccc1)NC(=O)[C@H](CC(=O)O)NC(=O)[C@H](CCSC)NC(C)=O)C(=O)N[C@@H](CCC(=O)O)C(=O)N[C@@H](C)C(=O)N[C@@H](CCC(N)=O)C(=O)N[C@@H](CCC(N)=O)C(=O)N[C@@H](CO)C(N)=O [PGC1β-18, Ac-MDFDSLL(CrtDab)EAQQS-NH2] (Ac-MDFDSLL[Dab](Crotonyl(E))EAQQS-NH2) | < 100 µM | –
3 | Ac-AMDFDSLLKEAQQSLH-NH2 [PGC1β-Cterm, Ac-AMDFDSLLKEAQQSLH-NH2] | ~35 µM | –
4 | Ac-MAFDSLLKAAQQS-NH2 [PGC1β-15, Ac-MAFDSLLKAAQQS-NH2] | < 100 µM | –
5 | Ac-MAFDSLLKNAAAS-NH2 [PGC1β-13, Ac-MAFDSLLKNAAAS-NH2] | < 100 µM | –
6 | Ac-MAFDSLLKNAAQS-NH2 [PGC1β-14, Ac-MAFDSLLKNAAQS-NH2] | < 100 µM | –
7 | Ac-MAFDSMLKAAQQS-NH2 [PGC1β-17, Ac-MAFDSMLKAAQQS-NH2] | < 100 µM | –
8 | Ac-MDADSLLKEAQQS-NH2 [PGC1β-3A, Ac-MDADSLLKEAQQS-NH2] | > 200 µM | –
9 | Ac-MDFASLLKEAQQS-NH2 [PGC1β-4A, Ac-MDFASLLKEAQQS-NH2] | > 200 µM | –
10 | Ac-MDFDALLKEAQQS-NH2 [PGC1β-5A, Ac-MDFDALLKEAQQS-NH2] | 64 ± 2 µM | –
11 | Ac-MDFDSALKEAQQS-NH2 [PGC1β-6A, Ac-MDFDSALKEAQQS-NH2] | > 200 µM | –
12 | Ac-MDFDSLAKEAQQS-NH2 [PGC1β-7A, Ac-MDFDSLAKEAQQS-NH2] | > 200 µM | –
13 | Ac-MDFDSLLKEAAQS-NH2 [PGC1β-11A, Ac-MDFDSLLKEAAQS-NH2] | 64 ± 2 µM | –
14 | Ac-MDFDSLLKEAQQS-NH2 [PGC1β-wt, Ac-MDFDSLLKEAQQS-NH2] | 69 µM | –
15 | Ac-MDFDSLLKEGQQS-NH2 [PGC1β-10A, Ac-MDFDSLLKEGQQS-NH2] | > 200 µM | –
16 | B1 | – | 32 µM
17 | B2 | – | 26 µM
18 | B3 | – | 93 µM
19 | B4 | – | 50 µM
20 | B5 | – | 72 µM
21 | B6 | – | 56 µM
22 | B7 | – | 80 µM
